One data set relates to monkey. Kind of data set: extrapyramidal side effects (dyskinesias, dystonias) in the monkey. Format: in vivo.
Another data set relates to monkeys. The experiment in a line: conditioned avoidance behavior (lever press to avoid foot shock) in monkeys. Format: in vivo, squirrel monkey. Conditions: Primates, oral, read-out: oral dose that disrupts avoidance behavior (decreases avoidance responses). On the procedure: (§1) Each lever press postpones the shock for 30 seconds. Whenever the animal fails to press the lever once within said period, brief (0.5 sec.) shocks are delivered at 15 second intervals until the animal again presses the lever. Under control conditions the animals press the lever at a moderately steady rate and seldom receive more than five or six shocks during a 25-minute (rats) and up to 4-hour experimental session. Said compounds evaluated for neuroleptic activity, are administered to the animals 30, 90, 210 minutes prior to the experimental session and block the learned conditioned avoidance behavior, manifested by a decrease in avoidance responding with a marked increase in shocks taken by the animal. Both the avoidance responses and failures (shocks received) are recorded separately for evaluation.
(§2) Indicative of the antipsychotic utility of the compounds of this invention, e.g., the compound of example 1, namely 5-(4-methyl-1-piperazinyl)-11H-imidazo[1,2-c][1,3]benzodiazepine disrupts avoidance behavior, e.g. decreases avoidance responses in rats and monkeys at an oral dose of 30 mg/kg or lower.

A further data set deals with rats. Kind of data set: conditioned avoidance behavior (lever press to avoid foot shock) in rats. Conditions: Rattus norvegicus, oral, read-out: oral dose that disrupts avoidance behavior (decreases avoidance responses). Format: in vivo. As for the experimental part:
as §1, §2

Data set [1] concerns the target histamine activation of adenylate cyclase. The experiment in a line: inhibition of histamine activation of adenylate cyclase in vesicles of guinea pig cerebral cortex. Format: biochemical. The note with it: 50 micromolar histamine. As for the experimental part: Finally, said antihistaminic properties can be shown in vitro, e.g., according to Chasin et al., J. Neurochem. 22, 1031 (1974). Vesicles from a cell free preparation of guinea pig cerebral cortex are preincubated with ^3 H-adenine to form endogenous ^3 H-adenosine triphosphate. The vesicles are then incubated with 50 micromolar histamine to activate ^3 H-cyclic adenosine monophosphate synthesis in the absence or presence of the test compound at a concentration between 0.01 and 100 micromolar. When said compound is active, it inhibits the histamine activation of adenylate cyclase. The IC50 represents the concentration at which histamine activation is inhibited by 50%.

The next data set relates to α-adrenergic. The experiment in a line: α-adrenergic blocking activity in vitro. Format: biochemical.

As for `CN1CCN(C2=Nc3ccccc3Cc3nccn32)CC1` [example 1, 5-(4-methyl-1-piperazinyl)-11H-imidazo[1,2-c][1,3]benzodiazepine], the “extrapyramidal side effects, e.g. dyskinesias and dystonias” value in the data set on monkey is “essentially free of extrapyramidal side effects”. In addition, the minimal effective dose in the data set with monkeys and in the data set on rats was not above 30 mg/kg throughout. In addition, the IC50 (in general, the midpoint of a concentration-inhibition curve) in data set [1] was approximately 1000 nM. In addition, in the data set on α-adrenergic, the α-adrenergic blocking activity entry is on record as “only minimal α-adrenergic blocking activity”.

Source of the values: patent US4459232A, “Imidazo[1,2-c][1,3]benzodiazepines” (Ciba-Geigy Corporation, priority 1982, dated 1984).
